Converted amounts (≈) assume the structure as drawn.
These compounds were tested on S. aureus MP-549 msr(a) USA 300 (assay: MIC determination). Settings: Staphylococcus aureus, USA300, S. aureus MP-549 msr(a) USA 300.
Type: cell-based

First: COc1ccc(C2=C[C@H]3CN[C@H](C(=O)N[C@H]([C@H](C)Cl)[C@H]4OC(SC)[C@H](O)[C@H](O)C4O)[C@@H]3OCC2)cc1 (stereo partly drawn) [FSA-512076]
Second: CSC1O[C@H]([C@H](NC(=O)[C@H]2NC[C@@H]3C[C@@H](C4CCNCC4)CCO[C@H]32)[C@H](C)Cl)C(O)[C@@H](O)[C@H]1O (stereo partly drawn) [FSA-512011]
The MIC of the first is 32-fold lower: 0.25 µg/mL (≈ 0.46 µM) for the first, 8 µg/mL (≈ 15.3 µM) for the second.

These compounds were tested on E. coli ATCC 25922 (assay: MIC determination). Settings: Escherichia coli, ATCC25922.
Type: cell-based

Work on CSC1O[C@H]([C@H](NC(=O)[C@H]2NC[C@@H]3C[C@@H](C4CCNCC4)CCO[C@H]32)[C@H](C)Cl)C(O)[C@@H](O)[C@H]1O (stereo partly drawn) [FSA-512011] yielded an MIC greater than 256 µg/mL.

Same assay, conditions: Escherichia coli, ATCC25922, E. coli ATCC 25922; read-out: MIC

Work on COc1ccc(C2=C[C@H]3CN[C@H](C(=O)N[C@H]([C@H](C)Cl)[C@H]4OC(SC)[C@H](O)[C@H](O)C4O)[C@@H]3OCC2)cc1 (stereo partly drawn) [FSA-512076] yielded an MIC greater than 256 µg/mL.

What follows are compounds tested on S. aureus ATCC 29213 (assay: MIC determination). Settings: Staphylococcus aureus, ATCC29213, S. aureus ATCC 29213; read-out: MIC.
Type: cell-based

First: COc1ccc(C2=C[C@H]3CN[C@H](C(=O)N[C@H]([C@H](C)Cl)[C@H]4OC(SC)[C@H](O)[C@H](O)C4O)[C@@H]3OCC2)cc1 (stereo partly drawn) [FSA-512076]
Second: CSC1O[C@H]([C@H](NC(=O)[C@H]2NC[C@@H]3C[C@@H](C4CCNCC4)CCO[C@H]32)[C@H](C)Cl)C(O)[C@@H](O)[C@H]1O (stereo partly drawn) [FSA-512011]
The MIC of the first is 32-fold lower: 0.25 µg/mL (≈ 0.46 µM) for the first, 8 µg/mL (≈ 15.3 µM) for the second.

Each compound was assayed on S. pneumoniae ATCC 49619 (assay: MIC determination). Settings: Streptococcus pneumoniae, ATCC49619; S. pneumoniae ATCC 49619; read-out: MIC.
Type: cell-based

Going from COc1ccc(C2=C[C@H]3CN[C@H](C(=O)N[C@H]([C@H](C)Cl)[C@H]4OC(SC)[C@H](O)[C@H](O)C4O)[C@@H]3OCC2)cc1 (stereo partly drawn) [FSA-512076] to CSC1O[C@H]([C@H](NC(=O)[C@H]2NC[C@@H]3C[C@@H](C4CCNCC4)CCO[C@H]32)[C@H](C)Cl)C(O)[C@@H](O)[C@H]1O (stereo partly drawn) [FSA-512011], the MIC rises from no more than 0.12 µg/mL to 1 µg/mL (≈ 1.92 µM).

What follows are compounds tested on E. coli MP-74 LptD mutant (assay: MIC determination). Settings: Escherichia coli.
Type: cell-based

Going from COc1ccc(C2=C[C@H]3CN[C@H](C(=O)N[C@H]([C@H](C)Cl)[C@H]4OC(SC)[C@H](O)[C@H](O)C4O)[C@@H]3OCC2)cc1 (stereo partly drawn) [FSA-512076] to CSC1O[C@H]([C@H](NC(=O)[C@H]2NC[C@@H]3C[C@@H](C4CCNCC4)CCO[C@H]32)[C@H](C)Cl)C(O)[C@@H](O)[C@H]1O (stereo partly drawn) [FSA-512011], the MIC rises from 64 µg/mL (≈ 118 µM) to greater than 256 µg/mL.

These compounds were tested on H. influenzae ATCC 49247 (assay: MIC determination). Settings: Haemophilus influenzae, ATCC49247.
Type: cell-based

CSC1O[C@H]([C@H](NC(=O)[C@H]2NC[C@@H]3C[C@@H](C4CCNCC4)CCO[C@H]32)[C@H](C)Cl)C(O)[C@@H](O)[C@H]1O (stereo partly drawn) [FSA-512011] gave an MIC greater than 256 µg/mL.

Same assay, conditions: Haemophilus influenzae, ATCC49247; H. influenzae ATCC 49247; read-out: MIC

COc1ccc(C2=C[C@H]3CN[C@H](C(=O)N[C@H]([C@H](C)Cl)[C@H]4OC(SC)[C@H](O)[C@H](O)C4O)[C@@H]3OCC2)cc1 (stereo partly drawn) [FSA-512076] showed an MIC of 128 µg/mL (≈ 236 µM).

What follows are compounds tested on E. faecalis ATCC 29212 (assay: MIC determination). Settings: Enterococcus faecalis, ATCC29212, read-out: MIC.
Type: cell-based

First: COc1ccc(C2=C[C@H]3CN[C@H](C(=O)N[C@H]([C@H](C)Cl)[C@H]4OC(SC)[C@H](O)[C@H](O)C4O)[C@@H]3OCC2)cc1 (stereo partly drawn) [FSA-512076]
Second: CSC1O[C@H]([C@H](NC(=O)[C@H]2NC[C@@H]3C[C@@H](C4CCNCC4)CCO[C@H]32)[C@H](C)Cl)C(O)[C@@H](O)[C@H]1O (stereo partly drawn) [FSA-512011]
The MIC of the first is 32-fold lower: 2 µg/mL (≈ 3.68 µM) for the first, 64 µg/mL (≈ 123 µM) for the second.

The compounds below were run on S. pyogenes ATCC 19615 (assay: MIC determination). Settings: Streptococcus pyogenes, ATCC19615; S. pyogenes ATCC 19615; read-out: MIC.
Type: cell-based

Going from COc1ccc(C2=C[C@H]3CN[C@H](C(=O)N[C@H]([C@H](C)Cl)[C@H]4OC(SC)[C@H](O)[C@H](O)C4O)[C@@H]3OCC2)cc1 (stereo partly drawn) [FSA-512076] to CSC1O[C@H]([C@H](NC(=O)[C@H]2NC[C@@H]3C[C@@H](C4CCNCC4)CCO[C@H]32)[C@H](C)Cl)C(O)[C@@H](O)[C@H]1O (stereo partly drawn) [FSA-512011], the MIC rises from no more than 0.12 µg/mL to 4 µg/mL (≈ 7.66 µM).

Each compound was assayed on E. coli MP-9 ΔTolC (assay: MIC determination). Settings: Escherichia coli.
Type: cell-based

First: COc1ccc(C2=C[C@H]3CN[C@H](C(=O)N[C@H]([C@H](C)Cl)[C@H]4OC(SC)[C@H](O)[C@H](O)C4O)[C@@H]3OCC2)cc1 (stereo partly drawn) [FSA-512076]
Second: CSC1O[C@H]([C@H](NC(=O)[C@H]2NC[C@@H]3C[C@@H](C4CCNCC4)CCO[C@H]32)[C@H](C)Cl)C(O)[C@@H](O)[C@H]1O (stereo partly drawn) [FSA-512011]
The MIC of the first is lower: 64 µg/mL (≈ 118 µM) for the first, greater than 256 µg/mL for the second.
